Results from US20240269238A1, “Therapeutic Regimens and Methods for Reducing Body Weight in a Subject with Fatty Liver Disease using a GLP-1R and GCGR Agonist” (Spitfire Pharma LLC, priority 2022, published 2024).
“Also recorded” adds a separate entry of the source.

Key:
Type in all cases: in vivo, human
[1] = Phase 1b 24-week NAFLD study (Example 3): serum lipids, blood pressure, heart rate, glycemic control
Description: (§1) Provided herein is disclosure of a 12-week extension study of the study provided in Example 1, providing a 24-week a Phase 1b, randomized, double-blind, placebo-controlled study to assess the effects of pemvidutide (also termed herein as ALT-801), the safety of pemvidutide and effects on weight loss, hepatic fat fraction, anthropometric parameters, lipid metabolism, as well as inflammatory, fibrosis and other markers in diabetic and non-diabetic (type 2 diabetes) overweight and obese (BMI≥28.0 kg/m^2) subjects with NAFLD (defined as liver fat content (LFC) by MRI-PDFF ≥10%; absence of significant fibrosis, defined as FibroScan® LSM ≤10 kPa), alanine aminotransferase (ALT) and aspartate aminotransferase (AST) laboratory values of ≤75 IU/L and HbA1c <9.5. Men and women aged 18-65 years were studied. Diabetic subjects were defined as those that have undergone stable dose (≥3 months) metformin or SLGT-2 therapy and no use of insulin, sulfonylureas, DPP-4, GLP-1 treatment; Ninety-four (94) subjects were enrolled in the initial 12-week Phase 1b NAFLD trial and 83 subjects who completed were invited to receive a total of 12 additional weeks of blinded treatment. Of those subjects, 66 consented to rollover, of which 64 were eligible to participate.
(§2) The primary endpoint of this study was a reduction in liver fat content (LFC) by MRI-PDFF at Week 24 compared to Week 0 (zero). Key secondary endpoints include percent (%) weight loss at Week 24 compared to Week 0 (zero), and liver inflammation by alanine aminotransferase (ALT) levels and corrected T1 (cT1) imaging at Week 24 as compared to Week 0 (zero). Adverse events (AEs), including serious and severe AEs, AEs leading to discontinuation, GI tolerability, vital signs, and glycemic control including fasting glucose and HbA1c levels were also measured.

[2] = Phase 1 12-week NAFLD study (Example 1): safety, tolerability, serum lipids, glycemic control, heart rate; conditions: for AE leading to treatment discontinuation, number of subjects: gastrointestinal intolerance
Description: Provided herein is disclosure of a Phase 1, multicenter, randomized, double-blind, placebo-controlled study to assess the effects of Pemvidutide (also termed herein as ALT-801), the safety of Pemvidutide and effects on hepatic fat fraction, anthropometric parameters, lipid metabolism, inflammatory markers and fibrosis markers in diabetic and non-diabetic (type 2 diabetes) overweight and obese (BMI 28.0 kg/m^2) subjects with NAFLD. This study was designed to assess changes in hepatic fat fraction by MRI-PDFF (magnetic resonance imaging-proton density fat fraction) in diabetic and non-diabetic overweight and obese subjects with NAFLD after 12 weeks of ALT-801 treatment. The trial was conducted without adjunctive diet and exercise interventions. The study assessed changes in body weight, lipid metabolism, metabolic markers, and inflammatory markers and safety and tolerability of ALT-801 after 12 weeks of treatment. Subjects were stratified for the presence or absence of diabetes at baseline. Fibroscan and cT1 assessments evaluated changes in liver inflammatory and fibrotic activity at the end of 12 weeks of treatment.
The study, described in this example, was carried out in 94 subjects overweight and obese (body mass index [BMI] ≥28.0 kg/m^2) Type 2 diabetic and non-diabetic subjects with nonalcoholic fatty liver disease (NAFLD) over about 4.5 months, including up to a 35-day screening period, and 85-day treatment period and a 25-day follow-up period, with treatment with ALT-801 (a composition comprising SEQ ID NO.: 1, “study medication”) or placebo administered by subcutaneous (SC) injection once weekly for up to twelve (12) doses.
The safety objective of this study was to assess the safety and tolerability of ALT-801 in 18-65 years old subjects with NAFLD (NAFLD without significant fibrosis, defined as FibroScan® controlled attenuation parameter (CAP) ≥280 dB/m and liver stiffness measurement (LSM)<10 kPa (i.e., indicating the absence of significant fibrosis), magnetic resonance imaging derived proton density fat fraction (MRI-PDFF) ≥10%), hemoglobin Alc (HbAlc) of less than 9.5%, and alanine aminotransferase (ALT) or aspartate aminotransferase (AST) values of ≤[…]. The pharmacodynamic (PD) objectives of this study were to evaluate the effects of ALT-801 on hepatic fat fraction, anthropometric parameters, lipid metabolism, metabolic markers, inflammatory markers, fibrosis markers, and lipotoxicity markers. The pharmacokinetic (PK) objectives of this study were to evaluate the effects of ALT-801 and metformin exposure (drug interactions) on the subjects (e.g., ALT-801 and metformin concentrations in blood over time).
After providing informed consent, subjects underwent a screening period of up to 35 days. Subjects were instructed on how to maintain their normal diets, alcohol consumption and physical activities and not to start any new diets, supplements, or exercise programs at any time while participating in the study. Counseling was provided on diet and exercise on the Day 1 visit and reinforced at subsequent visits. Study subjects were randomized 1:1:1:1 to one of the following treatment arms: 1) ALT-8011.2 mg SC once weekly for 12 weeks; 2) ALT-8011.8 mg SC once weekly for 12 weeks; 3) ALT-801 0.6 mg SC at week 1, 1.2 mg SC at week 2, 1.8 mg SC once weekly for 2 weeks (weeks 3 and 4), and 2.4 mg SC once weekly for weeks 5 through 12; or, 4) placebo SC once weekly for 12 weeks. Subjects were stratified by presence or absence of diabetes at baseline. Subjects in the treatment arm with a final therapeutic dose of 2.4 mg underwent a rapid 4-week dose escalation to improve tolerability and reduce the possibility of adverse events. […] See FIG. 7, second 2.4 mg column as compared to the first 2.4 mg column (this study). See WO 2022/125598. […]

[3] = Phase 1b 24-week NAFLD study (Example 3): body weight loss; conditions: for weight loss: Week 24
Description: as §1, §2

CC[C@H](C)[C@H](NC(=O)[C@H](Cc1ccccc1)NC(=O)[C@H](CCC(=O)O)NC(=O)[C@@H]1CCCCNC(=O)CC[C@H](NC(=O)[C@H](CC(=O)O)NC(=O)[C@H](CC(C)C)NC(=O)[C@H](Cc2ccc(O)cc2)NC(=O)[C@H](CCCCN)NC(=O)[C@H](CO)NC(=O)[C@H](Cc2ccc(O)cc2)NC(=O)[C@H](CC(=O)O)NC(=O)[C@H](CO)NC(=O)[C@@H](NC(=O)[C@H](Cc2ccccc2)NC(=O)[C@@H](NC(=O)CNC(=O)[C@H](CCC(N)=O)NC(=O)C(C)(C)NC(=O)[C@@H](N)Cc2c[nH]cn2)[C@@H](C)O)[C@H](C)O)C(=O)N[C@@H](CCCCNC(=O)C2O[C@@H](OCCCCCCCCCCCCCCCCCC(=O)O)C(O)C(O)[C@@H]2O)C(=O)N[C@@H](C)C(=O)N[C@@H](C)C(=O)N1)C(=O)N[C@@H](CCC(N)=O)C(=O)N[C@@H](Cc1c[nH]c2ccccc12)C(=O)N[C@@H](CC(C)C)C(=O)N[C@@H](CC(C)C)C(=O)N[C@@H](CCC(N)=O)C(=O)N[C@H](C(N)=O)[C@@H](C)O (stereo partly shown) [ALT-801, Pemvidutide]
systolic blood pressure reduction ([1]; 2.4 mg per week, week 24): significant
blood pressure and heart rate ([1]; all doses, week 24): improvements in blood pressure without clinically meaningful increases in heart rate
serum lipids ([1]; all doses, week 24): improvements in serum lipids
glycemic parameters (fasting glucose and HbA1c) ([1]; diabetic patients, all doses, Week 24): improvements in glycemic parameters
AE leading to treatment discontinuation, rate ([2]; 1.8 mg arm, 12 weeks): 4.3%
AE leading to treatment discontinuation, number of subjects ([2]; 1.8 mg arm, 12 weeks): 1
AE leading to treatment discontinuation, rate ([2]; 2.4 mg arm, 12 weeks): 4.2%
AE leading to treatment discontinuation, number of subjects ([2]; 2.4 mg arm, 12 weeks): 1
AEs leading to treatment discontinuation (in words) ([2]; 12 weeks): very low rates
clinically significant ALT elevations (3-fold or greater the upper limit of normal) ([2]; 12 weeks): No clinically significant ALT elevations; also recorded: no three-fold or greater ALT elevations were observed
glycemic control (HbA1c, fasting glucose) ([2]; 12 weeks): unaffected
increases in heart rate (HR) ([2]; 12 weeks): 1-3 beat-per-minute (bpm)
serious and severe adverse events ([2]; 12 weeks treatment): No serious adverse events (AEs), severe AEs were observed; also recorded: no severe or serious AEs were observed
symptoms experienced by subjects (severity) ([2]; 12 weeks treatment): predominantly mild and transient
serum lipids ([2]; after 12 weeks): not significantly altered
tolerability ([2]; each treatment arm (FIG. 7)): well tolerated
weight loss (in words) ([3]; Week 24 compared to Week 12): continued weight loss
weight loss ([3]; diabetic subjects): 5.3%
weight loss ([3]; non-diabetic subjects): 7.2%
